Values after ≈ are worked out from the molar mass of the structure shown.
system: Pseudomonas aeruginosa; test: microbe, parasite or virus in culture
Description: Minimum inhibitory concentration in Pseudomonas aeruginosa,799/61 permeability mutant

SMILES	MIC
CC(C)(O/N=C(\C(=O)N[C@@H]1C(=O)N2C(C(=O)O)=C(CNC(=O)c3cc(O)c(O)c(C#N)c3)CSC12)c1csc(N)n1)C(=O)O (stereo partly drawn)	0.008 µg/mL (≈ 0.0124 µM)
CCOC(=O)C(CC1=C(C(=O)O)N2C(=O)[C@@H](NC(=O)/C(=N\OC(C)(C)C(=O)O)c3csc(N)n3)C2SC1)C(=O)c1cc(O)c(O)c(Br)c1 (stereo partly drawn)	0.008 µg/mL (≈ 0.0104 µM)
CCN(CC1=C(C(=O)O)N2C(=O)[C@@H](NC(=O)/C(=N\OC(C)(C)C(=O)O)c3csc(N)n3)C2SC1)C(=O)c1cc(O)c(O)c(C#N)c1 (stereo partly drawn)	0.008 µg/mL (≈ 0.0119 µM)
CCOC(=O)c1nc2cc(O)c(O)cc2nc1C(=O)NCC1=C(C(=O)O)N2C(=O)[C@@H](NC(=O)/C(=N\OC(C)(C)C(=O)O)c3csc(N)n3)C2SC1 (stereo partly drawn)	0.008 µg/mL (≈ 0.0107 µM)

system: Enterobacter cloacae; test: microbe, parasite or virus in culture
Description: Minimum inhibitory concentration in Enterobacter cloacae, P99+ constitutive depressed type 1 lactamase producer

SMILES	MIC
CC(C)(O/N=C(\C(=O)N[C@@H]1C(=O)N2C(C(=O)O)=C(CNC(=O)c3cc(O)c(O)c(C#N)c3)CSC12)c1csc(N)n1)C(=O)O (stereo partly drawn)	2 µg/mL (≈ 3.1 µM)
CCOC(=O)C(CC1=C(C(=O)O)N2C(=O)[C@@H](NC(=O)/C(=N\OC(C)(C)C(=O)O)c3csc(N)n3)C2SC1)C(=O)c1cc(O)c(O)c(Br)c1 (stereo partly drawn)	0.25 µg/mL (≈ 0.324 µM)
CCN(CC1=C(C(=O)O)N2C(=O)[C@@H](NC(=O)/C(=N\OC(C)(C)C(=O)O)c3csc(N)n3)C2SC1)C(=O)c1cc(O)c(O)c(C#N)c1 (stereo partly drawn)	1 µg/mL (≈ 1.48 µM)
CCOC(=O)c1nc2cc(O)c(O)cc2nc1C(=O)NCC1=C(C(=O)O)N2C(=O)[C@@H](NC(=O)/C(=N\OC(C)(C)C(=O)O)c3csc(N)n3)C2SC1 (stereo partly drawn)	0.06 µg/mL (≈ 0.0806 µM)

system: Enterobacter cloacae; test: microbe, parasite or virus in culture; remark: another data set of the same source
Description: Minimum inhibitory concentration in Enterobacter cloacae, I+401029 inducible type 1 lactamase producer

SMILES	MIC
CC(C)(O/N=C(\C(=O)N[C@@H]1C(=O)N2C(C(=O)O)=C(CNC(=O)c3cc(O)c(O)c(C#N)c3)CSC12)c1csc(N)n1)C(=O)O (stereo partly drawn)	0.03 µg/mL (≈ 0.0465 µM)
CCOC(=O)C(CC1=C(C(=O)O)N2C(=O)[C@@H](NC(=O)/C(=N\OC(C)(C)C(=O)O)c3csc(N)n3)C2SC1)C(=O)c1cc(O)c(O)c(Br)c1 (stereo partly drawn)	0.03 µg/mL (≈ 0.0389 µM)
CCN(CC1=C(C(=O)O)N2C(=O)[C@@H](NC(=O)/C(=N\OC(C)(C)C(=O)O)c3csc(N)n3)C2SC1)C(=O)c1cc(O)c(O)c(C#N)c1 (stereo partly drawn)	0.015 µg/mL (≈ 0.0223 µM)
CCOC(=O)c1nc2cc(O)c(O)cc2nc1C(=O)NCC1=C(C(=O)O)N2C(=O)[C@@H](NC(=O)/C(=N\OC(C)(C)C(=O)O)c3csc(N)n3)C2SC1 (stereo partly drawn)	0.03 µg/mL (≈ 0.0403 µM)

system: Citrobacter freundii; test: microbe, parasite or virus in culture
Description: Minimum inhibitory concentration in Citrobacter freundii, I+382010 inducible type 1 lactamase producer

SMILES	MIC
CC(C)(O/N=C(\C(=O)N[C@@H]1C(=O)N2C(C(=O)O)=C(CNC(=O)c3cc(O)c(O)c(C#N)c3)CSC12)c1csc(N)n1)C(=O)O (stereo partly drawn)	0.008 µg/mL (≈ 0.0124 µM)
CCOC(=O)C(CC1=C(C(=O)O)N2C(=O)[C@@H](NC(=O)/C(=N\OC(C)(C)C(=O)O)c3csc(N)n3)C2SC1)C(=O)c1cc(O)c(O)c(Br)c1 (stereo partly drawn)	0.008 µg/mL (≈ 0.0104 µM)
CCN(CC1=C(C(=O)O)N2C(=O)[C@@H](NC(=O)/C(=N\OC(C)(C)C(=O)O)c3csc(N)n3)C2SC1)C(=O)c1cc(O)c(O)c(C#N)c1 (stereo partly drawn)	0.008 µg/mL (≈ 0.0119 µM)
CCOC(=O)c1nc2cc(O)c(O)cc2nc1C(=O)NCC1=C(C(=O)O)N2C(=O)[C@@H](NC(=O)/C(=N\OC(C)(C)C(=O)O)c3csc(N)n3)C2SC1 (stereo partly drawn)	0.008 µg/mL (≈ 0.0107 µM)

system: Pseudomonas aeruginosa; test: microbe, parasite or virus in culture; remark: another data set of the same source
Description: Minimum inhibitory concentration in Pseudomonas aeruginosa,799WT parent organism

SMILES	MIC
CC(C)(O/N=C(\C(=O)N[C@@H]1C(=O)N2C(C(=O)O)=C(CNC(=O)c3cc(O)c(O)c(C#N)c3)CSC12)c1csc(N)n1)C(=O)O (stereo partly drawn)	0.008 µg/mL (≈ 0.0124 µM)
CCOC(=O)C(CC1=C(C(=O)O)N2C(=O)[C@@H](NC(=O)/C(=N\OC(C)(C)C(=O)O)c3csc(N)n3)C2SC1)C(=O)c1cc(O)c(O)c(Br)c1 (stereo partly drawn)	0.008 µg/mL (≈ 0.0104 µM)
CCN(CC1=C(C(=O)O)N2C(=O)[C@@H](NC(=O)/C(=N\OC(C)(C)C(=O)O)c3csc(N)n3)C2SC1)C(=O)c1cc(O)c(O)c(C#N)c1 (stereo partly drawn)	0.008 µg/mL (≈ 0.0119 µM)
CCOC(=O)c1nc2cc(O)c(O)cc2nc1C(=O)NCC1=C(C(=O)O)N2C(=O)[C@@H](NC(=O)/C(=N\OC(C)(C)C(=O)O)c3csc(N)n3)C2SC1 (stereo partly drawn)	0.008 µg/mL (≈ 0.0107 µM)

system: Providencia stuartii; test: microbe, parasite or virus in culture
Description: Minimum inhibitory concentration in Pseudomonas stuartii, DR 442049 constitutive depressed type 1 lactamase producer

SMILES	MIC
CC(C)(O/N=C(\C(=O)N[C@@H]1C(=O)N2C(C(=O)O)=C(CNC(=O)c3cc(O)c(O)c(C#N)c3)CSC12)c1csc(N)n1)C(=O)O (stereo partly drawn)	4 µg/mL (≈ 6.2 µM)
CCOC(=O)C(CC1=C(C(=O)O)N2C(=O)[C@@H](NC(=O)/C(=N\OC(C)(C)C(=O)O)c3csc(N)n3)C2SC1)C(=O)c1cc(O)c(O)c(Br)c1 (stereo partly drawn)	0.5 µg/mL (≈ 0.649 µM)
CCN(CC1=C(C(=O)O)N2C(=O)[C@@H](NC(=O)/C(=N\OC(C)(C)C(=O)O)c3csc(N)n3)C2SC1)C(=O)c1cc(O)c(O)c(C#N)c1 (stereo partly drawn)	16 µg/mL (≈ 23.7 µM)
CCOC(=O)c1nc2cc(O)c(O)cc2nc1C(=O)NCC1=C(C(=O)O)N2C(=O)[C@@H](NC(=O)/C(=N\OC(C)(C)C(=O)O)c3csc(N)n3)C2SC1 (stereo partly drawn)	2 µg/mL (≈ 2.69 µM)

system: Citrobacter freundii; test: microbe, parasite or virus in culture; remark: another data set of the same source
Description: Minimum inhibitory concentration in Citrobacter freundii, DR 382031 constitutive depressed type 1

SMILES	MIC
CC(C)(O/N=C(\C(=O)N[C@@H]1C(=O)N2C(C(=O)O)=C(CNC(=O)c3cc(O)c(O)c(C#N)c3)CSC12)c1csc(N)n1)C(=O)O (stereo partly drawn)	2 µg/mL (≈ 3.1 µM)
CCOC(=O)C(CC1=C(C(=O)O)N2C(=O)[C@@H](NC(=O)/C(=N\OC(C)(C)C(=O)O)c3csc(N)n3)C2SC1)C(=O)c1cc(O)c(O)c(Br)c1 (stereo partly drawn)	0.25 µg/mL (≈ 0.324 µM)
CCN(CC1=C(C(=O)O)N2C(=O)[C@@H](NC(=O)/C(=N\OC(C)(C)C(=O)O)c3csc(N)n3)C2SC1)C(=O)c1cc(O)c(O)c(C#N)c1 (stereo partly drawn)	1 µg/mL (≈ 1.48 µM)
CCOC(=O)c1nc2cc(O)c(O)cc2nc1C(=O)NCC1=C(C(=O)O)N2C(=O)[C@@H](NC(=O)/C(=N\OC(C)(C)C(=O)O)c3csc(N)n3)C2SC1 (stereo partly drawn)	0.06 µg/mL (≈ 0.0806 µM)

system: Pseudomonas aeruginosa; test: microbe, parasite or virus in culture; remark: another data set of the same source
Description: Minimum inhibitory concentration in Pseudomonas aeruginosa, 18S inducible type 1 lactamase producer

SMILES	MIC
CC(C)(O/N=C(\C(=O)N[C@@H]1C(=O)N2C(C(=O)O)=C(CNC(=O)c3cc(O)c(O)c(C#N)c3)CSC12)c1csc(N)n1)C(=O)O (stereo partly drawn)	0.008 µg/mL (≈ 0.0124 µM)
CCOC(=O)C(CC1=C(C(=O)O)N2C(=O)[C@@H](NC(=O)/C(=N\OC(C)(C)C(=O)O)c3csc(N)n3)C2SC1)C(=O)c1cc(O)c(O)c(Br)c1 (stereo partly drawn)	0.008 µg/mL (≈ 0.0104 µM)
CCN(CC1=C(C(=O)O)N2C(=O)[C@@H](NC(=O)/C(=N\OC(C)(C)C(=O)O)c3csc(N)n3)C2SC1)C(=O)c1cc(O)c(O)c(C#N)c1 (stereo partly drawn)	0.008 µg/mL (≈ 0.0119 µM)
CCOC(=O)c1nc2cc(O)c(O)cc2nc1C(=O)NCC1=C(C(=O)O)N2C(=O)[C@@H](NC(=O)/C(=N\OC(C)(C)C(=O)O)c3csc(N)n3)C2SC1 (stereo partly drawn)	0.008 µg/mL (≈ 0.0107 µM)

system: Pseudomonas aeruginosa; test: microbe, parasite or virus in culture; remark: another data set of the same source
Description: Minimum inhibitory concentration in Pseudomonas aeruginosa, 18SH constitutive depressed type 1 lactamase producer

SMILES	MIC
CC(C)(O/N=C(\C(=O)N[C@@H]1C(=O)N2C(C(=O)O)=C(CNC(=O)c3cc(O)c(O)c(C#N)c3)CSC12)c1csc(N)n1)C(=O)O (stereo partly drawn)	0.06 µg/mL (≈ 0.0929 µM)
CCOC(=O)C(CC1=C(C(=O)O)N2C(=O)[C@@H](NC(=O)/C(=N\OC(C)(C)C(=O)O)c3csc(N)n3)C2SC1)C(=O)c1cc(O)c(O)c(Br)c1 (stereo partly drawn)	0.008 µg/mL (≈ 0.0104 µM)
CCN(CC1=C(C(=O)O)N2C(=O)[C@@H](NC(=O)/C(=N\OC(C)(C)C(=O)O)c3csc(N)n3)C2SC1)C(=O)c1cc(O)c(O)c(C#N)c1 (stereo partly drawn)	0.125 µg/mL (≈ 0.186 µM)
CCOC(=O)c1nc2cc(O)c(O)cc2nc1C(=O)NCC1=C(C(=O)O)N2C(=O)[C@@H](NC(=O)/C(=N\OC(C)(C)C(=O)O)c3csc(N)n3)C2SC1 (stereo partly drawn)	0.015 µg/mL (≈ 0.0201 µM)

system: Enterobacter cloacae; test: microbe, parasite or virus in culture; remark: another data set of the same source
Description: Minimum inhibitory concentration in Enterobacter cloacae, DR 401108 constitutive depressed type 1 lactamase producer

SMILES	MIC
CC(C)(O/N=C(\C(=O)N[C@@H]1C(=O)N2C(C(=O)O)=C(CNC(=O)c3cc(O)c(O)c(C#N)c3)CSC12)c1csc(N)n1)C(=O)O (stereo partly drawn)	8 µg/mL (≈ 12.4 µM)
CCOC(=O)C(CC1=C(C(=O)O)N2C(=O)[C@@H](NC(=O)/C(=N\OC(C)(C)C(=O)O)c3csc(N)n3)C2SC1)C(=O)c1cc(O)c(O)c(Br)c1 (stereo partly drawn)	0.25 µg/mL (≈ 0.324 µM)
CCN(CC1=C(C(=O)O)N2C(=O)[C@@H](NC(=O)/C(=N\OC(C)(C)C(=O)O)c3csc(N)n3)C2SC1)C(=O)c1cc(O)c(O)c(C#N)c1 (stereo partly drawn)	1 µg/mL (≈ 1.48 µM)
CCOC(=O)c1nc2cc(O)c(O)cc2nc1C(=O)NCC1=C(C(=O)O)N2C(=O)[C@@H](NC(=O)/C(=N\OC(C)(C)C(=O)O)c3csc(N)n3)C2SC1 (stereo partly drawn)	0.5 µg/mL (≈ 0.671 µM)

system: Providencia stuartii; test: microbe, parasite or virus in culture; remark: another data set of the same source
Description: Minimum inhibitory concentration in Pseudomonas stuartii, I+442019 inducible type 1 lactamase producer

SMILES	MIC
CC(C)(O/N=C(\C(=O)N[C@@H]1C(=O)N2C(C(=O)O)=C(CNC(=O)c3cc(O)c(O)c(C#N)c3)CSC12)c1csc(N)n1)C(=O)O (stereo partly drawn)	0.06 µg/mL (≈ 0.0929 µM)
CCOC(=O)C(CC1=C(C(=O)O)N2C(=O)[C@@H](NC(=O)/C(=N\OC(C)(C)C(=O)O)c3csc(N)n3)C2SC1)C(=O)c1cc(O)c(O)c(Br)c1 (stereo partly drawn)	0.125 µg/mL (≈ 0.162 µM)
CCN(CC1=C(C(=O)O)N2C(=O)[C@@H](NC(=O)/C(=N\OC(C)(C)C(=O)O)c3csc(N)n3)C2SC1)C(=O)c1cc(O)c(O)c(C#N)c1 (stereo partly drawn)	0.25 µg/mL (≈ 0.371 µM)
CCOC(=O)c1nc2cc(O)c(O)cc2nc1C(=O)NCC1=C(C(=O)O)N2C(=O)[C@@H](NC(=O)/C(=N\OC(C)(C)C(=O)O)c3csc(N)n3)C2SC1 (stereo partly drawn)	0.06 µg/mL (≈ 0.0806 µM)

system: Enterobacter cloacae; test: microbe, parasite or virus in culture; remark: another data set of the same source
Description: Minimum inhibitory concentration in Enterobacter cloacae, P99- inducible type 1 lactamase producer

SMILES	MIC
CC(C)(O/N=C(\C(=O)N[C@@H]1C(=O)N2C(C(=O)O)=C(CNC(=O)c3cc(O)c(O)c(C#N)c3)CSC12)c1csc(N)n1)C(=O)O (stereo partly drawn)	0.06 µg/mL (≈ 0.0929 µM)
CCOC(=O)C(CC1=C(C(=O)O)N2C(=O)[C@@H](NC(=O)/C(=N\OC(C)(C)C(=O)O)c3csc(N)n3)C2SC1)C(=O)c1cc(O)c(O)c(Br)c1 (stereo partly drawn)	0.125 µg/mL (≈ 0.162 µM)
CCN(CC1=C(C(=O)O)N2C(=O)[C@@H](NC(=O)/C(=N\OC(C)(C)C(=O)O)c3csc(N)n3)C2SC1)C(=O)c1cc(O)c(O)c(C#N)c1 (stereo partly drawn)	0.06 µg/mL (≈ 0.0891 µM)
CCOC(=O)c1nc2cc(O)c(O)cc2nc1C(=O)NCC1=C(C(=O)O)N2C(=O)[C@@H](NC(=O)/C(=N\OC(C)(C)C(=O)O)c3csc(N)n3)C2SC1 (stereo partly drawn)	0.03 µg/mL (≈ 0.0403 µM)
